A value given as a limit tells only on which side of the number the result lay.

What is called IC50 is the concentration needed to halve the response being measured.

In test [1] the test system is Phosphorylation of ERK1/2 in A549 cells. The test can be described thus: Phospho-ERK1/2 MSD assay in A549 cells. Type of test: cell-based. The note with it: Homo sapiens, A549, 2 h, read-out: p-ERK IC50 (2 h, A549; μM), 2 h compound treatment, A549 cells, EGF stimulated. An outline of the steps:
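MSD electrochemiluminescent read-out of phospho-ERK1/2 in RIPA lysates. Cells in RPMI 1640 with 10% FBS received titrated compound for 2 or 4 h, then 10 ng/mL EGF for 10 min before ice-cold PBS wash and lysis.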

For test [2], the target named is GDP-bound KRAS protein (aa 1-169), containing both G12C and C118A amino acid substitutions (Homo sapiens (Human), UniProt P01116, C118A/G12C). Nature of the test: Coupled nucleotide exchange assay (SOS-mediated nucleotide exchange, AlphaScreen). Type of test: biochemical. The settings on record: read-out: Coupled exchange IC50 (5 min; μM); 5 min compound pre-incubation.
Chain of GDP-bound KRAS protein (aa 1-169), containing both G12C and C118A amino acid substitutions (P01116 other isoform, or with tags, fused parts or gaps G12C/C118A): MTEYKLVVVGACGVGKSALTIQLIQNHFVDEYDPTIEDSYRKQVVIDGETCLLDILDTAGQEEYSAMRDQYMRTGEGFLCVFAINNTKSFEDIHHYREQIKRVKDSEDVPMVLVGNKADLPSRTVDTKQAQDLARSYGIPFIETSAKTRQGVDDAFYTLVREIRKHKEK

Test [3] has as its system Phosphorylation of ERK1/2 in MIA PaCa-2 cells. The test can be described thus: Phospho-ERK1/2 MSD assay in MIA PaCa-2 cells. Type of test: cell-based. The settings on record: Homo sapiens, MIA PaCa-2, 2 h, read-out: p-ERK IC50 (2 h, MiaPaCa-2; μM), 2 h compound treatment, MIA PaCa-2 cells, EGF stimulated. The gist of the method:
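Phospho-ERK1/2 measured by MSD electrochemiluminescence kit in RIPA lysates of MIA PaCa-2 cells. Cells were treated with compound titrations for 2 or 4 h at 37 °C, 5% CO2, followed by a 10 min pulse of 10 ng/mL EGF.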

Consider `C=CC(=O)N1C[C@H](C)N(c2nc(=O)n(-c3c(C)ccnc3C(C)C)c3nc(-c4c(F)cccc4NC(=O)CC)c(Cl)cc23)C[C@H]1C` (atropisomer, axis not shown; (M)) [Example 129-4, (M)-N-[2-[6-Chloro-4-[(2S,5R)-2,5-dimethyl-4-prop-2-enoyl-piperazin-1-yl]-1-(2-isopropyl-4-methyl-3-pyridyl)-2-oxo-pyrido[2,3-d]pyrimidin-7-yl]-3-fluoro-phenyl]propanamide], for which the IC50 was over 7.5 µM in test [1], 0.053 µM in test [2] and 0.058 µM in test [3].

Turning to `C=CC(=O)N1C[C@H](C)N(c2nc(=O)n(-c3c(C)ccnc3C(C)C)c3nc(-c4ccccc4NC(=O)C(F)(F)F)c(Cl)cc23)C[C@H]1C` (atropisomer, axis not shown; (M)) [Example 129-5], the IC50 in test [1] was over 7.5 µM; in test [2], 0.19 µM; in test [3], 0.087 µM.

`C=CC(=O)N1C[C@H](C)N(c2nc(=O)n(-c3c(C)ccnc3C(C)C)c3nc(-c4ccccc4NC(=O)C4CC4)c(Cl)cc23)C[C@H]1C` (atropisomer, axis not shown; (M)) [Example 129-6, (M)-N-[2-[6-Chloro-4-[(2S,5R)-2,5-dimethyl-4-prop-2-enoyl-piperazin-1-yl]-1-(2-isopropyl-4-methyl-3-pyridyl)-2-oxo-pyrido[2,3-d]pyrimidin-7-yl]phenyl]cyclopropanecarboxamide]: the IC50 in test [1] is over 7.5 µM; in test [2] it was 0.06 µM; in test [3] it was 0.058 µM.

Consider `C=CC(=O)N1C[C@H](C)N(c2nc(=O)n(-c3c(C)ccnc3C(C)C)c3nc(-c4ccccc4NC(=O)OC)c(Cl)cc23)C[C@H]1C` (atropisomer, axis not shown; (M)) [Example 129-7, (M)-Methyl-N-[2-[6-chloro-4-[(2S,5R)-2,5-dimethyl-4-prop-2-enoyl-piperazin-1-yl]-1-(2-isopropyl-4-methyl-3-pyridyl)-2-oxo-pyrido[2,3-d]pyrimidin-7-yl]phenyl]carbamate], for which the IC50 is over 7.5 µM in test [1], 0.064 µM in test [2] and 0.025 µM in test [3].

As to `C=CC(=O)N1C[C@H](C)N(c2nc(=O)n(-c3c(C)ccnc3C(C)C)c3nc(-c4c(F)cccc4NC(=O)OC)c(Cl)cc23)C[C@H]1C` (atropisomer, axis not shown; (M)) [Example 129-8, (M)-Methyl N-[2-[6-chloro-4-[(2S,5R)-2,5-dimethyl-4-prop-2-enoyl-piperazin-1-yl]-1-(2-isopropyl-4-methyl-3-pyridyl)-2-oxo-pyrido[2,3-d]pyrimidin-7-yl]-3-fluoro-phenyl]carbamate], the half-inhibitory concentration (IC50) in test [1] was over 7.5 µM; in test [2] it was 0.056 µM; in test [3], 0.023 µM.

`C=CC(=O)N1C[C@H](C)N(c2nc(=O)n(-c3c(C)ccnc3C(C)C)c3nc(-c4c(F)cccc4NC(=O)C4CC4)c(Cl)cc23)C[C@H]1C` (atropisomer, axis not shown; (M)) [Example 129-9, (M)-N-[2-[6-Chloro-4-[(2S,5R)-2,5-dimethyl-4-prop-2-enoyl-piperazin-1-yl]-1-(2-isopropyl-4-methyl-3-pyridyl)-2-oxo-pyrido[2,3-d]pyrimidin-7-yl]-3-fluoro-phenyl]cyclopropanecarboxamide]: the IC50 in test [1] was over 7.5 µM; in test [2], 0.008 µM; in test [3], 0.048 µM.

For `C=CC(=O)N1C[C@H](C)N(c2nc(=O)n(-c3c(C)ccnc3C(C)C)c3nc(-c4c(F)cccc4NC(=O)C(F)F)c(Cl)cc23)C[C@H]1C` (atropisomer, axis not shown; (M)) [Example 129-10, (M)-N-[2-[6-Chloro-4-[(2S,5R)-2,5-dimethyl-4-prop-2-enoyl-piperazin-1-yl]-1-(2-isopropyl-4-methyl-3-pyridyl)-2-oxo-pyrido[2,3-d]pyrimidin-7-yl]-3-fluoro-phenyl]-2,2-difluoro-acetamide], the results for the IC50 in test [1], in test [2] and in test [3] were over 7.5 µM, 0.041 µM and 0.049 µM, respectively.

The record behind these values is US11285156B2, “Substituted piperazines as KRAS G12C inhibitors” (Amgen Inc., priority 2018, dated 2022).
